Consider 15 compounds from PubChem BioAssay AID1259408 (Genetic Toxicology Data Bank (GENE-TOX), 2018).

Active and inactive are the calls of the source. The rule behind the calls is not given here.

For the data set, the system named is GENE-TOX genotoxicity assays, various organisms and cells. Put plainly: GENE-TOX mutagenicity studies. Particulars: for call: Assay Type: In vivo carcinogenicity studies.
The mark [1] stands for this setting: Species/Cell Type: Escherichia coli polA (W3119 vs P3478), Assay Type: Rec-assay, DNA effects (bacterial DNA repair), Assay Code: RE1+, Evaluation Type: Evaluation A (Pre-1980).
Setting [2] is: Species/Cell Type: Salmonella typhimurium (one or more of the five standard strains: TA98, TA100, TA1535, TA1537, and TA1538), Assay Type: Histidine reverse gene mutation, Ames assay, Assay Code: SAL+, Evaluation Type: Evaluation A (Pre-1980).
[3] abbreviates: Species/Cell Type: Salmonella typhimurium, Assay Type: Forward and reverse gene mutation, host-mediated assay, Assay Code: HMA+, Evaluation Type: Evaluation A (Pre-1980).
Where [4] appears, read: Species/Cell Type: Salmonella typhimurium (one or more of the five standard strains: TA98, TA100, TA1535, TA1537, and TA1538), Assay Type: Histidine reverse gene mutation, Ames assay, Assay Code: SALT, Evaluation Type: Evaluation A (Pre-1980).
The mark [5] stands for this setting: Species/Cell Type: Human diploid fibroblasts, Assay Type: Unscheduled DNA synthesis (UDS) in vitro, DNA effects, Assay Code: UDH-, Evaluation Type: Evaluation A (Pre-1980).
The mark [6] stands for this setting: Species/Cell Type: Human lymphocytes, Assay Type: Sister-chromatid exchange (SCE) in vitro, Assay Code: SCL+, Evaluation Type: Evaluation B (Post-1980).
Setting [7] is: Species/Cell Type: Human, Assay Type: Sister-chromatid exchange (SCE) in vitro, Assay Code: SC1+, Evaluation Type: Evaluation B (Post-1980).
The mark [8] stands for this setting: Species/Cell Type: Salmonella typhimurium (one or more of the five standard strains: TA98, TA100, TA1535, TA1537, and TA1538), Assay Type: Histidine reverse gene mutation, Ames assay, Assay Code: SAL+*, Activation: With metabolic activation, Evaluation Type: Evaluation A (Pre-1980).
[9] abbreviates: Species/Cell Type: Mouse, Sex: Male, Assay Type: Sperm morphology, Assay Code: SPI-, Evaluation Type: Evaluation A (Pre-1980).
Where [10] appears, read: Species/Cell Type: Nonhuman, Assay Code: CCGT, Evaluation Type: Evaluation A (Pre-1980).
Setting [11] is: Species/Cell Type: Saccharomyces cerevisiae, Assay Type: Mitotic recombination or gene conversion, Assay Code: YEH-, Evaluation Type: Evaluation A (Pre-1980).
[12] abbreviates: Species/Cell Type: Escherichia coli polA (W3119 vs P3478), Assay Type: Rec-assay, DNA effects (bacterial DNA repair), Assay Code: RE1T, Evaluation Type: Evaluation A (Pre-1980).

As for `ONc1ccc2ccccc2c1`, the mutagenic call is “active; positive” (Species/Cell Type: Chinese hamster ovary (CHO) cells, Assay Type: Forward gene mutation at the HPRT locus, Assay Code: CHO+, Evaluation Type: Evaluation B (Post-1980)); “active; positive” under setting [1]; “active; positive” (Species/Cell Type: Neurospora crassa, Assay Type: Forward gene mutation, Assay Code: NEF+, Evaluation Type: Evaluation A (Pre-1980)); “active; positive” (Species/Cell Type: Saccharomyces cerevisiae, Assay Type: Mitotic recombination or gene conversion, Assay Code: YEH+, Evaluation Type: Evaluation A (Pre-1980)); “active; positive” under setting [2]; “active; positive” under setting [3]. In addition, the call (Species/Cell Type: Nonhuman, Assay Code: CCG+, Evaluation Type: Evaluation A (Pre-1980)) is “active; positive”.

Take `CCN(CC)CCn1c2ccc(CO)c3c2c([n+]1[O-])-c1ccc(Cl)cc1S3`: the mutagenic call is, setting by setting: under setting [2], “active; positive”; under setting [4], “no conclusion”; (Species/Cell Type: Salmonella typhimurium, Assay Type: Forward and reverse gene mutation, body fluid assay, Assay Code: BFU+, Evaluation Type: Evaluation A (Pre-1980)) “active; positive”; under setting [3], “active; positive”.

Take `O=C1OCCN1N=Cc1ccc([N+](=O)[O-])o1`: the mutagenic call (Species/Cell Type: Bacillus subtilis (H17 vs M45), Assay Type: Rec-assay, spot test, DNA effects (bacterial DNA repair), Assay Code: REW+, Evaluation Type: Evaluation A (Pre-1980)) is “active; positive”; the mutagenic call (Species/Cell Type: Drosophila melanogaster, Assay Type: Sex-linked recessive lethal gene mutation, Assay Code: SRL+, Evaluation Type: Evaluation A (Pre-1980)) is “active; positive”; the mutagenic call (Species/Cell Type: Escherichia coli WP2, Assay Type: Tryptophan reverse gene mutation, Assay Code: WP2+, Evaluation Type: Evaluation A (Pre-1980)) is “active; positive”; the mutagenic call (Species/Cell Type: Escherichia coli WP2 UVRA, Assay Type: Tryptophan reverse gene mutation, Assay Code: WPU+, Evaluation Type: Evaluation A (Pre-1980)) was “active; positive”; the mutagenic call under setting [5] is “inactive; negative”; the mutagenic call under setting [6] was “active; positive”. Also, the mutagenic call is “no conclusion” (Species/Cell Type: Human lymphocytes, Assay Type: Sister-chromatid exchange (SCE) in vitro, Assay Code: SCLT, Evaluation Type: Evaluation A (Pre-1980)); “active; positive” under setting [7]; “no conclusion” (Species/Cell Type: Human, Assay Type: Sister-chromatid exchange (SCE) in vitro, Assay Code: SC1T, Evaluation Type: Evaluation A (Pre-1980)).

As to `O=C=NCCCl`, the mutagenic call (Species/Cell Type: Chinese hamster lung (V79) cells, Assay Type: Forward gene mutation at the HPRT or ouabain locus, Assay Code: V79-, Evaluation Type: Evaluation A (Pre-1980)) is “inactive; negative”.

Regarding `NC1C(O)[C@@H](O)C(CO)O[C@@H]1O` (stereo partly drawn), for the setting “Species/Cell Type: Escherichia coli WP2, Assay Type: Tryptophan reverse gene mutation, Assay Code: WP2-, Evaluation Type: Evaluation A (Pre-1980)”, the mutagenic call is “inactive; negative”.

Turning to `C1=CC2c3ccccc3OC2O1` (stereo not drawn), the mutagenic call under setting [8] was “active; positive”.

As to `C=C(C)[C@@H]1CCC(C)=C[C@H]1c1c(O)cc(CCCCC)cc1O`, the mutagenic call is “inactive; negative” (Species/Cell Type: Fischer rat embryo (RLV/1706) cells, Assay Type: Cell transformation, viral enhanced, Assay Code: CTR-, Evaluation Type: Evaluation A (Pre-1980)); “active; positive” (Species/Cell Type: Human lymphocytes, Assay Type: Sister-chromatid exchange (SCE) in vivo, Assay Code: SCY+, Evaluation Type: Evaluation B (Post-1980)); “active; positive” (Species/Cell Type: Mammalian polychromatic erythrocytes, Assay Type: Micronucleus test, chromosome aberrations, Assay Code: MNT+, Evaluation Type: Evaluation B (Post-1980)); “inactive; negative” under setting [9].

Take `Nc1ccccc1`: the mutagenic call by setting is: (Species/Cell Type: Allium cepa, Assay Type: Chromosome aberrations, Assay Code: ALCT, Evaluation Type: Evaluation A (Pre-1980)) “no conclusion”; (Species/Cell Type: Escherichia coli polA (W3110 vs P3478), Assay Type: Rec-assay, DNA effects (bacterial DNA repair), Assay Code: RE2-, Evaluation Type: Evaluation A (Pre-1980)) “inactive; negative”; under setting [1], “active; positive”; (Species/Cell Type: Fischer rat embryo (RLV/1706) cells, Assay Type: Cell transformation, viral enhanced, Assay Code: CTR+, Evaluation Type: Evaluation A (Pre-1980)) “active; positive”; under setting [6], “active; positive”; under setting [7], “active; positive”. The mutagenic call is “no conclusion” (Species/Cell Type: Mammalian polychromatic erythrocytes, Assay Type: Micronucleus test, chromosome aberrations, Assay Code: MNTT, Evaluation Type: Evaluation B (Post-1980)); “active; positive” (Species/Cell Type: Mouse (BALB/c-3T3) cells, Assay Type: Cell transformation, Assay Code: CTB+D, Dose Response: With dose response, Evaluation Type: Evaluation A (Pre-1980)); “inactive; negative” under setting [9]; “active; positive” (Species/Cell Type: Nonhuman, Assay Type: Sister-chromatid exchange (SCE) in vitro, Assay Code: SC2+D, Dose Response: With dose response, Evaluation Type: Evaluation A (Pre-1980)); “active; positive” (Species/Cell Type: Nonhuman, Assay Type: Sister-chromatid exchange (SCE) in vivo, Assay Code: SC3+D, Dose Response: With dose response, Evaluation Type: Evaluation B (Post-1980)); “inactive; negative” under setting [11]. Besides, the mutagenic call is, setting by setting: (Species/Cell Type: Salmonella typhimurium (one or more of the five standard strains: TA98, TA100, TA1535, TA1537, and TA1538), Assay Type: Histidine reverse gene mutation, Ames assay, Assay Code: SAL-, Evaluation Type: Evaluation A (Pre-1980)) “inactive; negative”; (Species/Cell Type: Syrian hamster embryo (SHE) cells, Assay Type: Cell transformation, clonal assay, Assay Code: CTC-, Evaluation Type: Evaluation A (Pre-1980)) “inactive; negative”. Besides, the call (Species/Cell Type: Nonhuman, Assay Code: CCG+L, Evaluation Type: Evaluation A (Pre-1980)) is “active; positive” and the call under setting [10] is “no conclusion”.

In the case of `O[C@@H]1C=Cc2cc3ccc4ccccc4c3cc2[C@H]1O`, the mutagenic call (Species/Cell Type: Nonhuman, Assay Type: Sister-chromatid exchange (SCE) in vitro, Assay Code: SC2+D, Dose Response: With dose response, Evaluation Type: Evaluation B (Post-1980)) is “active; positive” and the mutagenic call under setting [4] was “no conclusion”.

`Nc1ccc(Nc2ccccc2)cc1`: the mutagenic call (Species/Cell Type: Neurospora crassa, Assay Type: Aneuploidy, chromosome aberrations, Assay Code: NEN-, Evaluation Type: Evaluation A (Pre-1980)) was “inactive; negative”. The call (Species/Cell Type: Nonhuman, Assay Code: CCG-L, Evaluation Type: Evaluation A (Pre-1980)) is “inactive; negative”.

Take `CC(=O)Nc1ccc2c(c1)Cc1cc(O)ccc1-2`: the mutagenic call is “active; positive” (Species/Cell Type: Escherichia coli polA (W3110 vs P3478), Assay Type: Rec-assay, DNA effects (bacterial DNA repair), Assay Code: RE2+, Evaluation Type: Evaluation A (Pre-1980)); “no conclusion” under setting [12]; “inactive; negative” under setting [5]; “inactive; negative” (Species/Cell Type: Human, Assay Type: Sister-chromatid exchange (SCE) in vitro, Assay Code: SC1-, Evaluation Type: Evaluation B (Post-1980)); “inactive; negative” under setting [11]; “active; positive” under setting [8]. Besides, the mutagenic call (Species/Cell Type: Salmonella typhimurium, Assay Type: Forward and reverse gene mutation, host-mediated assay, Assay Code: HMA-, Evaluation Type: Evaluation A (Pre-1980)) was “inactive; negative”.

On to `CCN(CC)c1ccc2c(-c3ccccc3C(=O)O)c3ccc(=[N+](CC)CC)cc-3oc2c1`, for which the mutagenic call (Species/Cell Type: Bacillus subtilis (H17 vs M45T), Assay Type: Rec-assay, spot test, DNA effects (bacterial DNA repair), Assay Code: REXT, Evaluation Type: Evaluation A (Pre-1980)) was “no conclusion”; the mutagenic call (Species/Cell Type: Drosophila melanogaster, Assay Type: Sex-linked recessive lethal gene mutation, Assay Code: SRLT, Evaluation Type: Evaluation A (Pre-1980)) was “no conclusion”; the mutagenic call (Species/Cell Type: Nonhuman, Assay Type: Sister-chromatid exchange (SCE) in vivo, Assay Code: SC3T, Evaluation Type: Evaluation B (Post-1980)) is on record as “no conclusion”; the mutagenic call (Species/Cell Type: Saccharomyces cerevisiae, Assay Type: Mitotic recombination or gene conversion, Assay Code: YEC-, Evaluation Type: Evaluation A (Pre-1980)) was “inactive; negative”; the mutagenic call under setting [8] was “active; positive”. Further, the call under setting [10] was “no conclusion”.

With `N#CCCN1CC1`, the mutagenic call (Species/Cell Type: Schizosaccharomyces pombe, Assay Type: Reverse gene mutation, Assay Code: YEZ+, Evaluation Type: Evaluation A (Pre-1980)) was “active; positive”.

On to `CC(C)C(N)C(=O)O` (stereo not drawn), for which the mutagenic call under setting [12] is given as “no conclusion”.

In the case of `O=C1OC(=O)c2ccccc21`, the call (Species/Cell Type: Nonhuman, Assay Code: CCG-, Evaluation Type: Evaluation A (Pre-1980)) is “inactive; negative”.
